From patent US12091411B2, “IRAK degraders and uses thereof” (Kymera Therapeutics, Inc., priority 2022, dated 2024) come the findings set out here.

Like-named read-outs stand apart in the source and are kept apart here.

In this test the target is T1, IRAK4 (Homo sapiens, UniProt Q9NWZ3).
T1 construct: Degradation of IRAK4 in OCI-LY10 was quantitatively measured using Meso Scale Discovery technology; endogenous in cells; host or cells: OCI-LY10
T1 sequence (Q9NWZ3 1-460): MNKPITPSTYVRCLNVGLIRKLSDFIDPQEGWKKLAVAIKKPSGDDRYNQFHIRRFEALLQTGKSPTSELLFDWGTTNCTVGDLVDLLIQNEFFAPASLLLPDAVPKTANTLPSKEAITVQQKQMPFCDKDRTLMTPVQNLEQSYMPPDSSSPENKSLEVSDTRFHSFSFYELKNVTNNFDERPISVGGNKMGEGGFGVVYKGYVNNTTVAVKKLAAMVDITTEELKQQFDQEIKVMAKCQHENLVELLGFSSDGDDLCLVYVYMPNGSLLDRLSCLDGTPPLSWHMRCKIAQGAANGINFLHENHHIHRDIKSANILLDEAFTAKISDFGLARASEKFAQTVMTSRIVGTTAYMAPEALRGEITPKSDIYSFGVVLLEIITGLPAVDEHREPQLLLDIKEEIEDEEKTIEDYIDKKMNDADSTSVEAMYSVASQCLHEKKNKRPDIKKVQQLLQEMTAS
The test is described as follows: IRAK4 MSD Degradation in OCI-LY10. It counts as cell-based. The note with it: OCI-LY10 cells, MSD. An outline of the steps: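 DC50, from a three-parameter logistic fit and reported as letter bins A (<0.01 μM), B, C, D (>0.2 μM or not tested), reflects IRAK4 loss measured by MSD electrochemiluminescence in OCI-LY10 lysates. Treatment: 8 doses, 1:3 steps, top 1 to 10 μM, 4 to 24 h, 37 °C.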

Where [1] appears, read: 4 hrs incubation, read-out: IRAK4 degradation in OCI-LY10 at 4 hrs: DC50.
Where [2] appears, read: 24 hrs incubation, read-out: IRAK4 degradation in OCI-LY10 at 24 hrs: DC50.

As usually defined, the DC50 is the midpoint of the concentration-degradation curve. As for `Cn1c(=O)n(C2CCC(=O)NC2=O)c2cccc(C#CCN3CCN(C[C@H]4CC[C@H](n5cc(NC(=O)c6cnn7ccc(N8C9CCC8COC9)nc67)c(C(F)F)n5)CC4)CC3)c21` (stereo partly drawn) [I-339], the DC50 under setting [1] is under 0.01 µM and the DC50 under setting [2] was over 0.2 µM.

Consider `Cn1c(=O)n(C2CCC(=O)NC2=O)c2cccc(C#CCN3CCN([C@H]4CC[C@H](n5cc(NC(=O)c6cnn7ccc(N8C[C@H]9C[C@@H]8CO9)nc67)c(C(F)F)n5)CC4)CC3)c21` (stereo partly drawn) [I-340], for which the DC50 is, setting by setting: under setting [1], over 0.2 µM; under setting [2], over 0.2 µM.

With `Cn1c(=O)n(C2CCC(=O)NC2=O)c2cccc(C#COCC3CCN([C@H]4CC[C@H](n5cc(NC(=O)c6cnn7ccc(N8C[C@H]9C[C@@H]8CO9)nc67)c(C(F)F)n5)CC4)CC3)c21` (stereo partly drawn) [I-341], the DC50 is over 0.2 µM under setting [1] and over 0.2 µM under setting [2].

With `Cn1c(=O)n(C2CCC(=O)NC2=O)c2cccc(C#CCN3CC4CCC(C3)N4C[C@H]3CC[C@H](n4cc(NC(=O)c5cnn6ccc(N7C[C@H]8C[C@@H]7CO8)nc56)c(C(F)F)n4)CC3)c21` (stereo partly drawn) [I-342], the DC50 is under 0.01 µM under setting [1] and over 0.2 µM under setting [2].

Consider `Cn1c(=O)n(C2CCC(=O)NC2=O)c2cccc(C#CCN3C4CCC3CN(C[C@H]3CC[C@H](n5cc(NC(=O)c6cnn7ccc(N8C[C@H]9C[C@@H]8CO9)nc67)c(C(F)F)n5)CC3)C4)c21` (stereo partly drawn) [I-343], for which the DC50 reads like this: under setting [1], over 0.2 µM; under setting [2], under 0.01 µM.

Turning to `Cn1c(=O)n(C2CCC(=O)NC2=O)c2cccc(C#CCN3CC4CC(C3)N4C[C@H]3CC[C@H](n4cc(NC(=O)c5cnn6ccc(N7C[C@H]8C[C@@H]7CO8)nc56)c(C(F)F)n4)CC3)c21` (stereo partly drawn) [I-344], the DC50 reads like this: under setting [1], over 0.2 µM; under setting [2], over 0.2 µM.

Turning to `Cn1c(=O)n(C2CCC(=O)NC2=O)c2cccc(C#CCN3C4CC3CN(C[C@H]3CC[C@H](n5cc(NC(=O)c6cnn7ccc(N8C[C@H]9C[C@@H]8CO9)nc67)c(C(F)F)n5)CC3)C4)c21` (stereo partly drawn) [I-345], the DC50 was 0.01 to 0.1 µM under setting [1] and over 0.2 µM under setting [2].

Take `Cn1c(=O)n(C2CCC(=O)NC2=O)c2cccc(C#CCN3CC4COCC(C3)N4C[C@H]3CC[C@H](n4cc(NC(=O)c5cnn6ccc(N7C[C@H]8C[C@@H]7CO8)nc56)c(C(F)F)n4)CC3)c21` (stereo partly drawn) [I-348]: the DC50 under setting [1] was in the range of 0.1 to 0.2 µM and the DC50 under setting [2] was over 0.2 µM.

For the compound `Cn1c(=O)n(C2CCC(=O)NC2=O)c2cccc(C#CCN3C4COCC3CN(C[C@H]3CC[C@H](n5cc(NC(=O)c6cnn7ccc(N8C[C@H]9C[C@@H]8CO9)nc67)c(C(F)F)n5)CC3)C4)c21` (stereo partly drawn) [I-349], the DC50 reads like this: under setting [1], 0.01 to 0.1 µM; under setting [2], over 0.2 µM.

With `Cn1c(=O)n(C2CCC(=O)NC2=O)c2cccc(C#CCN3CCN(C[C@H]4CC[C@H](n5cc(NC(=O)c6cnn7ccc(C8COC8)nc67)c(C(F)F)n5)CC4)CC3)c21` (stereo partly drawn) [I-351], the DC50 is, setting by setting: under setting [1], over 0.2 µM; under setting [2], over 0.2 µM.

On to `Cn1c(=O)n(C2CCC(=O)NC2=O)c2cccc(C#CCN3CCN(C[C@H]4CC[C@H](n5cc(NC(=O)c6cnn7ccc(N8CC(C)(C)OC(C)(C)C8)nc67)c(C(F)F)n5)CC4)CC3)c21` (stereo partly drawn) [I-352], for which the DC50 is 0.01 to 0.1 µM under setting [1] and over 0.2 µM under setting [2].

As to `Cn1c(=O)n(C2CCC(=O)NC2=O)c2cccc(C#CCN3CCN(C[C@H]4CC[C@H](n5cc(NC(=O)c6cnn7ccc([C@@H]8CCOC8)nc67)c(C(F)F)n5)CC4)CC3)c21` (stereo partly drawn) [I-353], the DC50 reads like this: under setting [1], over 0.2 µM; under setting [2], over 0.2 µM.

As to `Cn1c(=O)n(C2CCC(=O)NC2=O)c2cccc(C#CCN3CCN(C[C@H]4CC[C@H](n5cc(NC(=O)c6cnn7ccc([C@H]8CCOC8)nc67)c(C(F)F)n5)CC4)CC3)c21` (stereo partly drawn) [I-354], the DC50 is over 0.2 µM under setting [1] and over 0.2 µM under setting [2].

`CN(C[C@H]1CC[C@H](n2cc(NC(=O)c3cnn4ccc(N5CC(C)(C)OC(C)(C)C5)nc34)c(C(F)F)n2)CC1)C1CCN(c2cccc3c2n(C)c(=O)n3C2CCC(=O)NC2=O)CC1` (stereo partly drawn) [I-355]: the DC50 is, setting by setting: under setting [1], 0.01 to 0.1 µM; under setting [2], over 0.2 µM.

For `CN(C[C@H]1CC[C@H](n2cc(NC(=O)c3cnn4ccc(N5CCOC6(CC6)C5)nc34)c(C(F)F)n2)CC1)C1CCN(c2cccc3c2n(C)c(=O)n3C2CCC(=O)NC2=O)CC1` (stereo partly drawn) [I-356], the DC50 was over 0.2 µM under setting [1] and under 0.01 µM under setting [2].
